Laboratory results published in publication doi:10.1101/2025.02.17.638454, “Synergistic RAS-MAPK and AKT Activation in MYC-Driven Tumors via Adjacent PVT1 Rearrangements” (bioRxiv, 2025).
No end group written: not given here.

Columns and labels:
[1] = biological target: T1, recombinant KRAS protein (Homo sapiens, UniProt P01116); test: Isothermal titration calorimetry of HNB into recombinant KRAS; format: binding; conditions: ITC, pH 8.0, 25°C, N 1 (fixed)
T1 construct: purchased Abcam ab156968
Procedure: Isothermal titration calorimetry (ITC) measures the change in temperature when two or more biomolecules bind to each other in a solution. The assay provides the binding affinity of ligands to proteins and the entropy or enthalpy of the reaction. Recombinant KRAS protein (#ab156968, Abcam) was dialyzed into the ITC assay buffer (20mM Tris pH 8.0, 100mM NaCl, 5mM Beta-mercaptoethanol) and concentrated to about 100 μM. During ITC titration twenty 6 μl injections (with intervals of 150 seconds) of 500μM HNB were made into the ITC cell containing 93 μM KRAS. Titration of 500μM HNB into the ITC assay buffer under the same conditions was used as the baseline control. ITC experiments were performed using Affinity ITC instrument (TA Instruments) at 25°C. The data was fitted and analyzed using NanoAnalyze software provided by TA Instruments. […]
(§1) bioRxiv preprint doi: https://doi.org/10.1101/2025.02.17.638454; this version posted February 22, 2025. The copyright holder for this preprint (which was not certified by peer review) is the author/funder, who has granted bioRxiv a license to display the preprint in perpetuity. It is made available under aCC-BY 4.0 International license. […]

[2] = tested on: MYC; test: q-RT-PCR of MYC transcript in D458; format: cell-based, human; conditions: D458, induction of HNB (-/+ Dox); n=3, unpaired t-test
Procedure: (§2) Total RNA was extracted with the TRIzol (Roche, Indianapolis, IN) as described by the manufacturer and complementary DNA synthesis, 1 μg of total RNA was reverse transcribed by using the GoScriptTM Reverse Transcription Mix, Random Primer Protocol (Promega, Madison, WI). Real-time PCR was run in triplicate using PowerUpTM SYBRTM Green Master Mix (Thermo Fisher Scientific), following the manufacturer’s instructions. Real-time PCR amplification monitoring was performed using the CFX96 Touch Real-Time PCR Detection System (Bio-Rad). Data were expressed as relative mRNA levels normalized to the GAPDH, served as endogenous normalization control expression levels in each sample, and are represented as mean ± standard error of the mean between 2 independent experiments unless otherwise indicated in the figure legend. The primer sequences are listed in the Supplementary Table.
(§3) The HNB ORF and eGFP (control) were cloned in an inducible lentivirus expression, TRE-gateway plasmid (pLIX_403, Addgene, #41395). Lentivirus was produced in HEK293T cells using the protocol described above. […] The protein lysates were collected and quantified using the previously described protocol. […] Bound proteins were detected with horseradish-peroxidase–conjugated secondary antibodies (Cell Signaling Technologies) and SuperSignal West Femto (Thermo Fisher Scientific). […]

[3] = tested on: MYC; test: q-RT-PCR of MYC transcript in COLO-320DM; format: cell-based, human; conditions: COLO320DM, induction of HNB (-/+ Dox); n=3, unpaired t-test, 0.0011
Procedure: as §2, §3

[4] = tested on: HALLMARK_MTORC1_SIGNALING; test: GSEA MTORC1 signaling, COLO320DM; format: cell-based, human; conditions: si.CircPVT1 vs si.Ctrl, n=3, Padj = 0.0188
Text: RNAseq processing: Raw reads were mapped to the hg19 human reference genome using the STAR aligner (v.2.5.0a) 66. PCR-duplicated reads and low mapping quality reads (MQ score below 20) were removed using Picard tools and SAMtools, respectively. Aligned reads were counted using htseq-count (v.0.6.1p1) 69 and normalized according to size factors method from DESeq2 70. We used fold change ≥2 and FDR <0.05 as the determination of differentially expressed genes (DEG). Statistical analysis and plots were performed inside R environment version 3.1.0. upload files) […]
as §1, with “a CC-BY” for “aCC-BY”, “license .” for “license.”
Supplementary Figure 11: Gene set enrichment analysis scores (GSEA) analysis of genes involved in MTORC 1 signaling in COLO320DM (A) and SK-PN-DW (B) treated with si.CircPVT 1. si.Ctrl was used as control. n=3, for each treatment condition .
(also on this page, place not known: SK-PN-DWB MTORC1 si.CircPVT1. condition. Enrichment Score Enrichment Score .CC-BY licenseavailable preprintthis https://doi.org/10.1101/2025.02.17.638454doi:) […]

T1 sequence (P01116 1-188 isoform P01116-2): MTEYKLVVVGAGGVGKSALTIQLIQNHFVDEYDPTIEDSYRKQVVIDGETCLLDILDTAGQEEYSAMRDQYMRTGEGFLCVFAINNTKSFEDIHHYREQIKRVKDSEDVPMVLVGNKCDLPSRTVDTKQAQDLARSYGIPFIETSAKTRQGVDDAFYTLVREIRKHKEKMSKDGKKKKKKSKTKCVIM

-TDS [1]	DH [1]	Substance	MYC mRNA level [2]	MYC mRNA level [3]	NES, HALLMARK_MTORC1_SIGNALING [4]
-0.7 ± 1.5 kcal/mol	-4 ± 2 kcal/mol	MKTQLGAVKGFLHV [HNB]	significantly reduced MYC expression at the mRNA as well as the protein levels	significantly reduced MYC expression at the mRNA as well as the protein levels	
		si.CircPVT1: siRNA targeting the junction sequence of CircPVT1, 5’-UGGGCUUGAGGCCUGAUCUUU-3’ (other strand not given here)			-1.506
